Test results reported in publication PMC6079014, “Calcium is an essential cofactor for metal efflux by the ferroportin transporter family” (Nature Communications, 2018).
Where two headings read alike, the source gives them in different places.

Columns and labels:
wild type BbFpn = wild type BbFpn (Bdellovibrio bacteriovorus, UniProt Q6MLJ0); experiment: biochemical; type: binding, Bdellovibrio bacteriovorous
human Fpn = biological target: T1, human Fpn (Homo sapiens, UniProt Q9NP59); experiment: Radiotracer metal efflux assay in Xenopus oocytes expressing human Fpn; type: cell-based; conditions: for Ability of other alkaline-earth metals to substitute for Ca2+ in activating 55Fe efflux: Ca2+-free media, 2 mM Sr or Ba plus 1 mM Mg2+, or 3 mM Mg2+; for Effect on 55Fe efflux of pharmacologically raising the cytosolic Ca2+ concentration: 1 µM ionomycin (IMN) or 2 µM thapsigargin (THG), media with 0.2% DMSO
T1 construct: expressed in transfected cells; host or cells: Xenopus laevis oocytes injected with Fpn RNA
T1 sequence (Q9NP59 1-571): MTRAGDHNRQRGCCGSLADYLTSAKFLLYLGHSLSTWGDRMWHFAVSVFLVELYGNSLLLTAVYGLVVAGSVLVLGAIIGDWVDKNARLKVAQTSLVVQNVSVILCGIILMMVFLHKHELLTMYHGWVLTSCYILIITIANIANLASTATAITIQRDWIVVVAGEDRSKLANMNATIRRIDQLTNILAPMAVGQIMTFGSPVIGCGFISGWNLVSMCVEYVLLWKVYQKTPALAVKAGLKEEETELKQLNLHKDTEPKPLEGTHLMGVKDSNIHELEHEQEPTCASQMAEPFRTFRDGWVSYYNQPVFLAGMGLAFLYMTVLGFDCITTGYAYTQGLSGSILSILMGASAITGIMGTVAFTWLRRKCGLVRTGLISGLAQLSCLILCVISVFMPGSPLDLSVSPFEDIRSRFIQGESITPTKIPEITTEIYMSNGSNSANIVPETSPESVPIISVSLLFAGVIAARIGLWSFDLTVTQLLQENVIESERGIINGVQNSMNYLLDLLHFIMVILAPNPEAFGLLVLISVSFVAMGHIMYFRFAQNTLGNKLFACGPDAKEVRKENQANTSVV
Method: We performed laparotomy and ovariectomy on adult female Xenopus laevis frogs (Nasco, Fort Atkinson, WI) under 2-aminoethylbenzoate methanesulfonate anesthesia (0.2%, by immersion, to effect) following a protocol approved by the University of Cincinnati Institutional Animal Care and Use Committee. Ovarian tissue was isolated and treated for 3 h with […] collagenase A (Roche Diagnostics Corp., Indianapolis, IN) in calcium-free-modified Barths’ medium (MBM) of composition 88 mM NaCl, 1 mM KCl, 2.4 mM NaHCO3, 1.57 mM MgSO4, 0.66 mM NaNO3, 10 mM 4-(2-hydroxyethyl)-1-piperazineethanesulfonic acid (HEPES), buffered to pH 7.5 by using 2-amino-2-hydroxymethyl-propane-1,3-diol (Tris base). We isolated defolliculate stage V–VI oocytes stored at 17 °C in MBM of composition 88 mM NaCl, 1 mM KCl, 2.4 mM NaHCO3, 0.82 MgSO4, 0.75 mM CaCl2, 0.66 mM NaNO3, 10 mM HEPES, buffered to pH 7.5 by using Tris base, with 50 mg l^−1 ciprofloxacin. We expressed in Xenopus oocytes the 1A transcript form of human Fpn fused at its C-terminus with the enhanced green fluorescent protein (GFP) as described. Oocytes were injected with ∼50 ng of Fpn RNA and incubated for 4–6 days before being used in functional assays. Control oocytes were noninjected.
We measured metal efflux from oocytes expressing Fpn by using a radiotracer assay. Radiochemicals ^55Fe, ^45Ca, ^57Co, ^65Zn were obtained from Perkin-Elmer Life Science Products (Boston, MA) and ^63Ni from the National Isotope Development Center (Oak Ridge, TN). We used ^55Fe (added as FeCl3) at final specific activity 0.4–2.0 GBq mg^−1, ^45Ca (added as CaCl2) at final specific activity 0.5–0.9 GBq mg^−1, ^57Co (added as CoCl2) at final specific activity 1.6 GBq mg^−1, ^65Zn (added as ZnCl2) at final specific activity 0.2 GBq mg^−1, and ^63Ni (added as NiCl2) at final specific activity 0.6 GBq mg^−1. Oocytes were injected with 50 nl of 5 μM metal radionuclide (*M) in vehicle of composition 250 mM KCl, 5 mM nitrilotriacetic acid, trisodium salt, buffered to pH 7.0 with ∼4 mM 2-(N-morpholino)ethanesulfonic acid (MES) (GFS Chemicals, Columbus, OH). After injection, oocytes were briefly stored in ice-cold MBM (for 1–5 min) prior to the start of the efflux assay.
To initiate the efflux assay, we placed oocytes in standard efflux medium of composition 100 mM NaCl, 1 mM KCl, 2 mM CaCl2, 1 mM MgCl2, 0.5 mM bathophenanthroline disulfonic acid (BPS), 1 mM nitrilotriacetic acid (NTA) trisodium salt, 50 μg/ml apotransferrin (ApoTf) (R&D Systems Inc., Minneapolis, MN), buffered with 0–5 mM MES, and 0–5 mM N′,N′-diethylpiperazine to obtain pH 7.5, with the following exceptions. To prepare Ca^2+-free medium, we replaced 2 mM CaCl2 with 4 mM NaCl and added 1 mM ethylene glycol-bis(2-aminoethyl ether)-N,N,N′,N′-tetraacetic acid (EGTA). To prepare Mg^2+-free medium, we replaced […] MgCl2 with 4 mM NaCl and added 1 mM ethylenediaminetetraacetic acid (EDTA). To measure ^55Fe efflux as a function of extracellular [Ca^2+] over the range 0.1–20 mM Ca^2+ (Figs. 1c, 6b), we adjusted [NaCl] and [CaCl2] on a 2:1 molar basis without the addition of EGTA. Oocytes were then transferred individually in 200 µl of medium to flat-bottomed wells of a 96-well plate and incubated 30 min—within the linear phase of metal efflux[10] —at 23–27 °C with gentle rocking. To terminate efflux, we removed 150 µl of medium (0.75 × [N0–Nt]) from each well for liquid-scintillation counting in Ultima Gold liquid-scintillation cocktail (Perkin-Elmer, Waltham, MA). The corresponding oocytes were rinsed twice in ice-cold medium (without BPS), solubilized with 5% (w/v) sodium dodecyl sulfate, and counted (Nt). We fit our data for oocyte radiotracer content (N) over time (Eq. (1)) and obtained the first-order rate constant (k) for metal radionuclide (*M) efflux for individual oocytes. N0 and Nt are counts per min (cpm) in the oocyte at time = 0 and time = t, respectively.1 Nt=N0⋅exp(-k⋅t) […]

BbFpn D24A = BbFpn D24A (Bdellovibrio bacteriovorus, UniProt Q6MLJ0, D24A); experiment: Isothermal titration calorimetry, D24A BbFpn; type: binding, Bdellovibrio bacteriovorous
Chain of BbFpn D24A (Q6MLJ0 whole entry D24A): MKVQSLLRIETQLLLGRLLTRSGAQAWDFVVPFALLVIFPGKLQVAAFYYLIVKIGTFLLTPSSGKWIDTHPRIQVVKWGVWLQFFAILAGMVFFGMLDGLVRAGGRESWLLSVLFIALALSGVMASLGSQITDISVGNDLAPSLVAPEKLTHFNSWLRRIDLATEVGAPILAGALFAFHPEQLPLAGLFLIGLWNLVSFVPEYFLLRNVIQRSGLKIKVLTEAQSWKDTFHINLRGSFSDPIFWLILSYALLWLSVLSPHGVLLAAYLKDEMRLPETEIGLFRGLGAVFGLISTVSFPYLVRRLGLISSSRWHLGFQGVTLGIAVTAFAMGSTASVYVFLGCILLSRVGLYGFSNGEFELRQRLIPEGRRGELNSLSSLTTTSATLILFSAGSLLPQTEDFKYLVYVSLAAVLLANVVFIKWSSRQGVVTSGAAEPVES

BbFpn E203A = BbFpn E203A (Bdellovibrio bacteriovorus, UniProt Q6MLJ0, E203A); experiment: Isothermal titration calorimetry, E203A BbFpn; type: binding, Bdellovibrio bacteriovorous
Chain of BbFpn E203A (Q6MLJ0 whole entry E203A): as the sequence (Q6MLJ0 whole entry D24A) above, with A24D, E203A counted along it

BbFpn Q84E = BbFpn Q84E (Bdellovibrio bacteriovorus, UniProt Q6MLJ0, Q84E); experiment: Isothermal titration calorimetry, Q84E BbFpn; type: binding, Bdellovibrio bacteriovorous
Chain of BbFpn Q84E (Q6MLJ0 whole entry Q84E): as the sequence (Q6MLJ0 whole entry D24A) above, with A24D, Q84E counted along it

BbFpn N196A = BbFpn N196A (Bdellovibrio bacteriovorus, UniProt Q6MLJ0, N196A); experiment: Isothermal titration calorimetry, N196A BbFpn; type: binding, Bdellovibrio bacteriovorous
Chain of BbFpn N196A (Q6MLJ0 whole entry N196A): as the sequence (Q6MLJ0 whole entry D24A) above, with A24D, N196A counted along it

[1] = Supplementary Figs. 5 and 9, one experiment

Chain of wild type BbFpn (Q6MLJ0 whole entry): as the sequence (Q6MLJ0 whole entry D24A) above, with A24D counted along it

[K+] [K^+]
Binding to wild type BbFpn by ITC (in words) (wild type BbFpn): no observable binding

[Mg+2] [Mg^2+, magnesium]
Binding to wild type BbFpn by ITC (in words) (wild type BbFpn; same experimental conditions as for Ca2+): no observable binding | Ability of other alkaline-earth metals to substitute for Ca2+ in activating 55Fe efflux (human Fpn): could not

[Na+] [Na^+]
Effect of extracellular Na+ replacement with choline on Fpn-mediated 55Fe efflux (human Fpn; presence or absence of 100 mM extracellular Na+): unaffected

[Sr+2] [Sr^2+, strontium]
Binding to D24A BbFpn by ITC (in words) (BbFpn D24A): complete loss | Kd (wild type BbFpn; 20 °C, 20 mM Tris pH 8, 50 mM NaCl, 0.004% LMNG, read-out: Kd (ITC)): 4.6e-05 ± 3.3e-06 M | -TΔS, ITC (wild type BbFpn; [1]): -19.2 kcal/mol | N (sites), ITC (wild type BbFpn; [1]): 0.478 ± 6.1e-2 | ΔG, ITC (wild type BbFpn; [1]): -5.83 kcal/mol | ΔH, ITC (wild type BbFpn; [1]): 13.4 ± 1.90 kcal/mol | Kd (wild type BbFpn; Supplementary Figs. 5 and 9, one experiment, read-out: KD (M), ITC): 4.57e-05 M | Binding to E203A BbFpn by ITC (in words) (BbFpn E203A): complete loss | Binding to Q84E BbFpn by ITC (in words) (BbFpn Q84E): no Ca^2+ or Sr^2+ binding | Ability of other alkaline-earth metals to substitute for Ca2+ in activating 55Fe efflux (human Fpn): could partially substitute | Binding to N196A BbFpn by ITC (in words) (BbFpn N196A): complete loss

[Ba+2] [barium]
Ability of other alkaline-earth metals to substitute for Ca2+ in activating 55Fe efflux (human Fpn): could not

C[C@H](CCC(=O)O)C[C@H](C)C[C@H](C)C(=O)/C=C(\O)[C@H](C)C[C@H](C)C/C=C/[C@@H](C)[C@@H](O)[C@@H](C)[C@@H](O)C[C@@H]1CC[C@@](C)([C@H]2CC[C@@](C)([C@@H](C)O)O2)O1 [ionomycin, reference compound]
Effect on 55Fe efflux of pharmacologically raising the cytosolic Ca2+ concentration (human Fpn): no effect

C/C=C(/C)C(=O)O[C@H]1C(C)=C2[C@H]([C@@H]1OC(=O)CCCCCCC)[C@@](C)(OC(C)=O)C[C@H](OC(=O)CCC)[C@@]1(O)[C@H]2OC(=O)[C@@]1(C)O [thapsigargin, reference compound]
Effect on 55Fe efflux of pharmacologically raising the cytosolic Ca2+ concentration (human Fpn): no effect
